One assay deals with DLD1 Parental cells. In words: Apoptosis assay (FITC active caspase-3). The class given is cell-based. More on the design: FITC- AVG / FITC+ AVG: unit not given here. The settings on record: for FITC+ AVG / FITC- AVG: DLD1 Parental. As to the method: DLD1 BRCA2 -/-, DLD1 Parental cells were plated on six well plates and treated with RTX-161 1 day after plating. Medium was replaced every 2 days with RTX-161. Cells were harvested 6 days after plating for apoptosis assay using FITC active caspase-3 apoptosis kit (BD biosciences, catalog # 550480) according to manufacturer’s instructions and analyzed by FACS with Celesta (Becton Dickinson).

For the next assay, the system named is DLD1 BRCA2 -/- cells. The assay can be described thus: Western blot γ-H2AX phosphorylation and PARP cleavage. The class given is cell-based. The settings on record: versus parental. The protocol:
Cells were harvested using—cell scraper and washed in phosphate-buffered saline (PBS), then lysed in 1 x RIPA Lysis and Extraction Buffer (Thermo Scientific #89901) containing Halt™ Protease and Phosphatase Inhibitor Cocktail (Thermo Scientific #1861281). Protein concentration was measured using Pierce™ BCA Protein Assay Kit (Thermo Scientific #23225). The proteins were separated by electrophoresis using 4–20% Mini-PROTEAN® TGX™ Precast Protein Gels (Bio-Rad #4561096) and transferred to Immuno Blot PVDF Membrane (Bio-Rad #1620177). Membranes were blocked using 5%-milk-TBST (or 5%-BSA-TBST for phospho-proteins) for 1 h at room temperature and washed with TBST prior to antibody incubation. Primary antibodies were incubated overnight at 4 °C in 1%-milk-TBST (or 2%-BSA-TBST for phospho-proteins). γ-H2AX (p Ser139) was detected using antibody (NOVUS #NB100-384) diluted 1:2000. Cleaved PARP was detected using antibody (Cell Signaling #9546) diluted 1:2000. Gapdh was detected using Gapdh (14C10) rabbit monoclonal antibody (Cell Signaling Technology #2118) diluted 1:4000. Membranes were washed with TBST prior to secondary antibody incubation for 1 h at room temperature using respective Goat anti-Rabbit IgG (H + L) HRP (Invitrogen #31466) or Goat anti-Mouse IgG (H + L) HRP (Invitrogen #31430)–tagged Secondary Antibody diluted 1:5000 in 2%-milk-TBST. […]
(In general: A western blot detects proteins with antibodies after separation by electrophoresis.)

In another assay the test system is VC8 cells. The assay can be described thus: Clonogenic assay. Type of assay: cell-based, Chinese hamster. The settings on record: for percent suvival: VC8 cells. As to the method:
Cells were plated on six or twelve or twenty-four well plates. In six well plate, 1000 cells/ well of BRCA2 -/-, BRCA1 -/-, PALB2 mut and 500 cells/ well of wildtype pair was plated; In twelve well plate, 600 cells/ well of BRCA2 -/-, BRCA1 -/-, PALB2 mut and 400 cells/ well of wildtype pair was plated; In twenty-four well plate, 500 cells/ well of BRCA2 -/-, BRCA1 -/-, PALB2 mut and 300 cells/ well of wildtype pair was plated. For MEFs, 300 cells per well in six-well plate were seeded. The medium was replaced every 2 days until the colonies were ready for staining in 10–12 days. For staining: Medium was removed from plates, and cells were rinsed with PBS. Fixation was carried out with—Water: Ethanol: Acetic acid (5:4:1) for 30 min followed by staining of colonies with 0.5% crystal violet in Water: Ethanol (3:2) for 2 h at room temperature. The plates were rinsed with water and left for drying overnight at room temperature. Colonies were then counted and IC50 was calculated using results from 3 or more independent experiments. Response curves are shown as mean colony formation +/- S.E.M.
Data are expressed as mean ± SEM from at least 3 independent experiments with triplicates for each condition unless stated otherwise. When conducting comparison between two groups, two-tailed unpaired t-test was used. Significance was assumed at p < 0.05. Asterisks in the figures indicate significance, ^∗p < 0.05, ^∗∗p < 0.01, ^∗∗∗p < 0.001. Combenefit® software version 2.021 was used to perform synergy analyses for drug combinations between RTx-161 and PARPi. GraphPad Prism 9 software was used to calculate IC50.

The subject of the next assay is Polα. In words: Primer extension by recombinant Pols (selectivity). Type of assay: biochemical.

Where “and” joins values, the source holds several entries; their conditions need not be identical. Equal values may be shown once.

Take `CN(C(=O)Oc1c(N2CCN(CCO)C2=O)cc(C(F)(F)F)cc1C(F)(F)F)c1ccc(F)cc1` [RTx-161]: the “% population FITC Caspase-3 Negative” value in the assay with DLD1 Parental cells (10 uM RTX-161) and with DLD1 Parental cells (20 uM RTX-161) was 99% each time. The “FITC+ AVG” value with DLD1 Parental cells (10 uM, left block of sheet) stood at 1.067; in the assay on DLD1 Parental cells (10 uM, middle block of sheet) it was 2.067; in the assay on DLD1 Parental cells (10 uM, right block of sheet), 2.033; in the assay with DLD1 Parental cells (20 uM, left block of sheet) it was 0.9333; with DLD1 Parental cells (20 uM, middle block of sheet), 1.467; in the assay with DLD1 Parental cells (20 uM, right block of sheet) it was 1.567. The “FITC- AVG” value in the assay on DLD1 Parental cells (10 uM, left block of sheet) is 98.9333; in the assay with DLD1 Parental cells (10 uM, middle block of sheet) it was 98; in the assay with DLD1 Parental cells (10 uM, right block of sheet) it was 97.9667; with DLD1 Parental cells (20 uM, left block of sheet), 99.0667; in the assay with DLD1 Parental cells (20 uM, middle block of sheet), 98.6667; in the assay with DLD1 Parental cells (20 uM, right block of sheet), 98.7667. Also, the PARP cleavage entry in the assay with DLD1 BRCA2 -/- cells was “selectively induced PARP cleavage”. For the same molecule, the percent suvival is 0% in the assay on VC8 cells (RTX-161 1 micro M + ola 30.00 nano M); 79.4521% and 92.4444% and 101.498% in the assay on VC8 cells (RTX-161 1 micro M, ola 0.00 nano M); 0% with VC8 cells (RTX-161 3 micro M + ola 30.00 nano M); 62.3288% and 70.2222% and 85.0187% in the assay on VC8 cells (RTX-161 3 micro M, ola 0.00 nano M). In addition, the “combination with Olaparib” value in the assay with VC8 cells (clonogenic survival) is given as “significantly reduced cellular resistance to Olaparib”. Besides, the “% Full Extension” value in the assay with Polα (Pol Alpha) was found to be 84.67%. The “% Inhibition Compared to Control” value with Polα (Pol Alpha) is on record as -1.20%. Further, the “% Relative Maximum Extension” value in the assay with Polα (Pol Alpha) is reported as 101.20%. In addition, the “inhibition of primer extension” value in the assay on Polα (selectivity panel, Pol named in Supplementary Fig. 1h) is on record as “no inhibition”.
